Measurements: patent US9156855B2, “Regulation of nitric oxide release and biofilm development” (Newsouth Innovation Pty Limited, priority 2011, dated 2015)
Values after ≈ are worked out from the molar mass of the structure shown. Counter-ions that a name gives are not always drawn. Like-named read-outs stand apart in the source and are kept apart here.

What was measured:
[1] = test system: P. aeruginosa PAO1 wild type cells; assay: Planktonic growth inhibition, minimum inhibitory concentration; type: cell-based; conditions: M9 minimal medium, 20 h growth, OD600nm of 35% or less
[2] = test system: P. aeruginosa NSGFP reporter strain (nirS-GFP); type: cell-based; conditions: control treatments alone
Description: To study nitric oxide release in intact cells of P. aeruginosa, the P. aeruginosa NSGFP reporter strain was used (Barraud et al., 2009). This strain harbours a gene reporter construct that expresses green fluorescent protein (GFP) when the nitric oxide-inducible nirS gene is expressed. P. aeruginosa NSGFP cells were grown with or without ampicillin at subinhibitory concentration (50 μg/ml) to induce β-lactamase activity.

[3] = test system: β-lactamase (penicillinase, Sigma Aldrich); assay: Amperometric nitric oxide release on exposure to penicillinase; type: biochemical; conditions: non-NO-releasing cephalosporin alone, in the presence or absence of penicillinase
Description: Arrows indicate addition of the following to a reaction vial containing 10 mL Tris buffer at pH 7.0: (a) 10 μL of 100 mM cephalosporin-3′-diazeniumdiolate, (b) 10 μl 1 U/μl penicillinase, (c) 20 μl 1 U/μl penicillinase, (d) 80 μL of 10 mM free radical scavenger PTIO.
Amperometric characterization of nitric oxide release from Compound 15. (a) Nitric oxide release in the presence of penicillinase at varying pH. Arrows indicate addition of the following to a reaction vial containing 10 mL Tris buffer at pH 9.0 (thick line), 7.0 (dashed line) or 5.0 (dotted line): (i) 10 μL of 150 mM Compound 15, (ii) 5 μL of 0.1 U/μL penicillinase, (iii) 10 μL of 0.1 U/μL penicillinase, (iv) 80 μL of 10 mM free radical scavenger PTIO. (b) Nitric oxide release in the presence of β-lactamase-expressing P. aeruginosa (thick line) or non-β-lactamase-expressing E. coli (dotted line) cell extracts. Arrows indicate addition of the following to a reaction vial containing 10 mL Tris buffer at pH 7.0: (i) 10 μL of 150 mM Compound 15, (ii) 100 μL cell extract, (iii) 200 μL cell extract, (iv) PTIO. […] The data is representative of at least three independent experiments. […]

[4] = test system: P. aeruginosa PAO1 wild type biofilms; assay: Biofilm dispersal assay, 24-well batch culture, PAO1; type: cell-based; conditions: 10 min exposure, alone
Description: P. aeruginosa PAO1 wild type ATCC and MA67 strains, P. aeruginosa FRD1, a mucoid, cystic fibrosis (CF) isolate (Oilman and Chakrabarty, 1981), and the clinical strain P. aeruginosa 18A, which was isolated from CF sputum samples of chronically infected individual in Tasmania (Kirov et al, 2007) were used for biofilm dispersal assays. Biofilms were grown in M9 minimal medium (containing 48 mM Na2HPO4, 22 mM KH2PO4, 9 mM NaCl, 19 mM NH4Cl, pH 7.2, 2 mM MgSO4, 20 mM glucose, and 100 μM CaCl2) in 24-well plates batch cultures at 37° C. with shaking at 200 rpm. After 6 h incubation for PAO1 wild-type biofilms or 24 h incubation for FRD1 and 18A biofilms, treatments were added to each well in less than 1 min per plate and the plates were incubated for a further 10 min at 37° C. with shaking at 200 rpm. Planktonic biomass was quantified by direct measurement of OD600 of the supernatant, and the remaining biofilm biomass was quantified by crystal violet staining (O'Toole and Kolter, 1998).

[5] = test system: Established P. aeruginosa biofilms; assay: Anti-biofilm efficacy of tobramycin or ciprofloxacin with compound 21 (Table 1); type: cell-based; conditions: tobramycin 80 μg/mL or ciprofloxacin 5 μg/mL, 1 h, mean ± SEM
Description: Values represent the log-fold reductions in cfu compared to control biofilms and are the mean of two independent experiments (±SEM).

[6] = test system: extracellular β-lactamases of P. aeruginosa; type: biochemical; conditions: P. aeruginosa culture treated 1 h; imipenem 0.5 μg/ml or ampicillin 100 μg/ml
Description: (c) Nitric oxide release in the presence of supernatants of P. aeruginosa cultures grown for 5 h in the absence of antibiotic then treated for 1 h with extracellular β-lactamase-inducing imipenem a 0.5 μg/ml (thick line) or ampicillin at 100 μg/ml (dotted line). Arrows indicate addition of the following to a reaction vial containing 10 mL Tris buffer at pH 7.0: (i) 10 μL of 150 mM Compound 15, (ii) 500 μL supernatant, (iii) 500 μL supernatant, (iv) PTIO.

Compound: CCN(CC)/[N+]([O-])=N/OCC1=C(C(=O)O)N2C(=O)C(NC(=O)Cc3ccccc3)C2SC1 (stereo not drawn) [Compound 15]
- melting point: 84 to 86 °C

Compound: CC(=O)OCC1=C(C(=O)O)N2C(=O)[C@@H](NC(=O)Cc3cccs3)[C@H]2SC1 [cephalothin]
- MIC ([1]; Pseudomonas aeruginosa, PAO1, read-out: MIC): 16 mM (≈ 6340 µg/mL)
- GFP fluorescence [2]: no effect on GFP fluorescence
- nitric oxide release [3]: no release of nitric oxide was observed
- nitric oxide release ([3]; listed as cefalotin): undetectable
- biofilm dispersal [4]: did not induce significant dispersal events

Compound: NC[C@H]1O[C@H](O[C@H]2[C@H](O)[C@@H](O[C@H]3O[C@H](CO)[C@@H](O)[C@H](N)[C@H]3O)[C@H](N)C[C@@H]2N)[C@H](N)C[C@@H]1O [Tobramycin]
- Log Reduction in Biofilm cfu ([5]; Compound 21 0 μM (antibiotic alone)): 2.15 ± 0.16
- Log Reduction in Biofilm cfu ([5]; with Compound 21 10 μM): 3.92 ± 0.06
- Log Reduction in Biofilm cfu ([5]; with Compound 21 100 μM): 3.58 ± 0.15

Compound: CC1(C)S[C@@H]2[C@H](NC(=O)[C@H](N)c3ccccc3)C(=O)N2[C@H]1C(=O)O [ampicillin]
- induction of extracellular β-lactamase expression [6]: failure of ampicillin to induce expression

Compound: CCN(CC)[N+]([O-])=N[O-].[Na+] [DEA, O^2-sodium 1-(N,N-diethylamino)diazen-1-ium-1,2-diolate]
- MIC [1]: 16 mM

Compound: CCN(CC)/[N+]([O-])=N/OCC1=C(C(=O)O)N2C(=O)C(NC(=O)Cc3ccccc3)C2SC1 (stereo not drawn) (as salt: potassium) [Compound 21]
- melting point: 35 to 37 °C
